Measured values: US6461997B1, “Triazole sulfones having herbicidal activity” (Monsanto Technology LLC, priority 1999, dated 2002)

Tested on: PANDI (fall panicum)
Assay: Pre-emergence herbicidal activity, warm season
Assay type: in vivo, Panicum dichotomiflorum
Settings: GR80 = lowest tested rate (300, 100, 30, 10 g/ha) with 80% or greater inhibition; approx. 14 days after treating; 30/21° C.
Summary of the method: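 Seeds sown in sterilised fertilised topsoil received surface-applied compound in 50:50 acetone/water, typically at 300, 100, 30 and 10 g/ha, then greenhouse-grown at 30/21° C (warm-season species) or 18/13° C (cool-season species). Percent inhibition versus untreated plants was scored at about 14 days, giving GR80; an asterisk marks activity short of 80% at the top rate.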

Structure (SMILES) | Pre-emergence activity (GR80) PANDI
CCN(CC)C(=O)n1cnc(S(=O)(=O)C(F)(F)SCCOC)n1 [Example 13] | 300 g/ha

Tested on: BROTE (downy brome)
Assay: Post-emergence herbicidal activity, cool season
Assay type: in vivo, Bromus tectorum
Settings: abraded plants sprayed at 300, 100, 30 and 10 g/ha; about 14 days after treatment
Summary of the method: (§1)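 GR80 values derive from percent growth inhibition scored approximately 14 days post-spray against abraded, unsprayed controls under an 18/13 °C regime. Foliar application to sandblast-abraded plants used rates of 300, 100, 30 and 10 g/ha in 50:50 acetone/water at 3,100 l/ha.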

Structure (SMILES) | Post-emergence activity GR80, BROTE
CCN(CC)C(=O)n1cnc(S(=O)(=O)C(F)(F)SCCOC)n1 [Example 13] | [empty]

Tested on: BROTE (downy brome)
Assay: Pre-plant incorporated (PPI) herbicidal activity, cool season
Assay type: in vivo, Bromus tectorum
Settings: pre-plant incorporated; lowest tested rate with 80% or greater inhibition; about 14 days
Procedure: (§2) In another set of tests, the pre-plant incorporated (PPI) activity of compounds of this invention was evaluated on the same species as for the pre-emergence tests described above. In the PPI tests the following procedure, designed to simulate PPI application, was used.
(§3) A pre-prepared topsoil mixture (described above) was placed in a pot and compacted to a depth of 1.0 to 1.25 cm from the top of the pot. Seeds of each of several monocotyledonous and dicotyledonous annual plant species were placed on top of the soil. A sufficient quantity of soil to cover the seeds and level fill the pot was weighed into an open container. A known amount of the test compound was dissolved or suspended in an organic solvent and applied by spraying to this cover soil. The cover soil was thoroughly mixed to distribute the test compound throughout the cover soil, and was then applied as a cover layer over the seeds. Untreated soil was used as a cover layer for control pots. After treatment the plants were placed in a greenhouse where they received 0.64 cm of overhead irrigation. All subsequent watering consisted of a light overhead mist and/or subirrigation as needed for germination and growth. Tables 9 and 10 below relate to warm season plant species which were placed after pre-emergence treatment in a greenhouse with a 30/21° C. day/night temperature regime. Tables 11 and 12 below relates to cool season plant species placed after pre-emergence treatment in a greenhouse or growth chamber with an 18/13° C. day/night temperature regime. Only the compounds of Examples 1, 6, 8, 11, 13 and 15-20 were included in PPI tests.
(§4) Approximately 14 days after planting and treating, the plants were observed and herbicidal efficacy recorded as percent inhibition by comparison with untreated plants.

Structure (SMILES) | PPI activity GR80, BROTE
CCN(CC)C(=O)n1cnc(S(=O)(=O)C(F)(F)SCCOC)n1 [Example 13] | * (activity observed, at least at highest rate, but <80% inhibition)

Same assay, conditions: weed, PPI application, 10 g/ha

Structure (SMILES) | Percent inhibition BROTE
CCN(CC)C(=O)n1cnc(S(=O)(=O)C(F)(F)SCCOC)n1 [Example 13] | 0%

Same assay, conditions: weed, PPI application, 30 g/ha

Structure (SMILES) | Percent inhibition BROTE
CCN(CC)C(=O)n1cnc(S(=O)(=O)C(F)(F)SCCOC)n1 [Example 13] | 0%

Same assay, conditions: weed, PPI application, 100 g/ha

Structure (SMILES) | Percent inhibition BROTE
CCN(CC)C(=O)n1cnc(S(=O)(=O)C(F)(F)SCCOC)n1 [Example 13] | 10%

Same assay, conditions: weed, PPI application, 300 g/ha

Structure (SMILES) | Percent inhibition BROTE
CCN(CC)C(=O)n1cnc(S(=O)(=O)C(F)(F)SCCOC)n1 [Example 13] | 20%

Same assay, conditions: weed, PPI application, 900 g/ha

Structure (SMILES) | Percent inhibition BROTE
CCN(CC)C(=O)n1cnc(S(=O)(=O)C(F)(F)SCCOC)n1 [Example 13] | 85%

Tested on: STEME (common chickweed)
Assay: as above
Assay type: in vivo, Stellaria media
Settings: pre-plant incorporated; lowest tested rate with 80% or greater inhibition; about 14 days
Procedure: as §2, §3, §4

Structure (SMILES) | PPI activity GR80, STEME
CCN(CC)C(=O)n1cnc(S(=O)(=O)C(F)(F)SCCOC)n1 [Example 13] | * (activity observed, at least at highest rate, but <80% inhibition)

Same assay, conditions: weed, PPI application, 10 g/ha

Structure (SMILES) | Percent inhibition STEME
CCN(CC)C(=O)n1cnc(S(=O)(=O)C(F)(F)SCCOC)n1 [Example 13] | 0%

Same assay, conditions: weed, PPI application, 30 g/ha

Structure (SMILES) | Percent inhibition STEME
CCN(CC)C(=O)n1cnc(S(=O)(=O)C(F)(F)SCCOC)n1 [Example 13] | 0%

Same assay, conditions: weed, PPI application, 100 g/ha

Structure (SMILES) | Percent inhibition STEME
CCN(CC)C(=O)n1cnc(S(=O)(=O)C(F)(F)SCCOC)n1 [Example 13] | 20%

Same assay, conditions: weed, PPI application, 300 g/ha

Structure (SMILES) | Percent inhibition STEME
CCN(CC)C(=O)n1cnc(S(=O)(=O)C(F)(F)SCCOC)n1 [Example 13] | 100%

Same assay, conditions: weed, PPI application, 900 g/ha

Structure (SMILES) | Percent inhibition STEME
CCN(CC)C(=O)n1cnc(S(=O)(=O)C(F)(F)SCCOC)n1 [Example 13] | 99%

Tested on: ALOMY (blackgrass)
Assay: Post-emergence herbicidal activity, cool season
Assay type: in vivo, Alopecurus myosuroides
Settings: abraded plants sprayed at 300, 100, 30 and 10 g/ha; about 14 days after treatment
Summary of the method: as §1

Structure (SMILES) | Post-emergence activity GR80, ALOMY
CCN(CC)C(=O)n1cnc(S(=O)(=O)C(F)(F)SCCOC)n1 [Example 13] | [empty]

Tested on: SETFA (giant foxtail)
Assay: Pre-plant incorporated (PPI) herbicidal activity, warm season
Assay type: in vivo, Setaria faberi
Settings: PPI application, 10 g/ha
Procedure: as §2, §3, §4

Structure (SMILES) | Percent inhibition SETFA
CCN(CC)C(=O)n1cnc(S(=O)(=O)C(F)(F)SCCOC)n1 [Example 13] | 0%

Same assay, conditions: PPI application, 30 g/ha

Structure (SMILES) | Percent inhibition SETFA
CCN(CC)C(=O)n1cnc(S(=O)(=O)C(F)(F)SCCOC)n1 [Example 13] | 99%

Same assay, conditions: PPI application, 100 g/ha

Structure (SMILES) | Percent inhibition SETFA
CCN(CC)C(=O)n1cnc(S(=O)(=O)C(F)(F)SCCOC)n1 [Example 13] | 90%

Same assay, conditions: PPI application, 300 g/ha

Structure (SMILES) | Percent inhibition SETFA
CCN(CC)C(=O)n1cnc(S(=O)(=O)C(F)(F)SCCOC)n1 [Example 13] | 100%

Same assay, conditions: PPI application, 900 g/ha

Structure (SMILES) | Percent inhibition SETFA
CCN(CC)C(=O)n1cnc(S(=O)(=O)C(F)(F)SCCOC)n1 [Example 13] | 100%

Same assay, conditions: pre-plant incorporated; lowest tested rate with 80% or greater inhibition; about 14 days

Structure (SMILES) | PPI activity GR80, SETFA
CCN(CC)C(=O)n1cnc(S(=O)(=O)C(F)(F)SCCOC)n1 [Example 13] | 30 g/ha

Tested on: SETVI (green foxtail)
Assay: Pre-plant incorporated (PPI) herbicidal activity, cool season
Assay type: in vivo, Setaria viridis
Settings: pre-plant incorporated; lowest tested rate with 80% or greater inhibition; about 14 days
Procedure: as §2, §3, §4

Structure (SMILES) | PPI activity GR80, SETVI
CCN(CC)C(=O)n1cnc(S(=O)(=O)C(F)(F)SCCOC)n1 [Example 13] | 100 g/ha

Same assay, conditions: weed, PPI application, 10 g/ha

Structure (SMILES) | Percent inhibition SETVI
CCN(CC)C(=O)n1cnc(S(=O)(=O)C(F)(F)SCCOC)n1 [Example 13] | 30%

Same assay, conditions: weed, PPI application, 30 g/ha

Structure (SMILES) | Percent inhibition SETVI
CCN(CC)C(=O)n1cnc(S(=O)(=O)C(F)(F)SCCOC)n1 [Example 13] | 95%

Same assay, conditions: weed, PPI application, 100 g/ha

Structure (SMILES) | Percent inhibition SETVI
CCN(CC)C(=O)n1cnc(S(=O)(=O)C(F)(F)SCCOC)n1 [Example 13] | 100%

Same assay, conditions: weed, PPI application, 300 g/ha

Structure (SMILES) | Percent inhibition SETVI
CCN(CC)C(=O)n1cnc(S(=O)(=O)C(F)(F)SCCOC)n1 [Example 13] | 100%

Same assay, conditions: weed, PPI application, 900 g/ha

Structure (SMILES) | Percent inhibition SETVI
CCN(CC)C(=O)n1cnc(S(=O)(=O)C(F)(F)SCCOC)n1 [Example 13] | 100%
